In US20020155172A1, “Methods and compounds for decreasing cell toxicity or death” (priority 2000, published 2002):

Legend:
GST-Q81 beads = assay: Chemical absorption assay, Q81; assay type: binding; conditions: 25 μM of each (FIG. 6B)
Protocol: FIG. 6B is a graph of the percent of binding of various compounds to amyloid-like Q81 aggregates measured using a chemical absorption assay. The anti-amyloid compounds minocycline, Chrysamine G, Rolitetracycline, iota carrageenan, dextran 500 (dextran), or Congo red (25 μM of each) were pre-absorbed with Q81 GST recombinant protein and the percentage absorbance of the compound remaining in the supernatant after absorption with GST-Q81 beads is plotted on the y-axis.
To determine if Congo red and its derivatives directly bind to expanded polyglutamine aggregates, we designed a chemical absorption assay. This assay measures the remaining Congo red in the supernatant after incubating the supernatant with GST-tagged polyglutamine beads, and removing the GST-polyglutamine beads by centrifugation. This assay was carried out as follows. Recombinant protein GST-Q19, GST-Q62, and GST-Q81 (containing 19, 62, and 81 polyglutamines, respectively) was purified from E. coli by glutathione beads. After several washes with PBS containing protease inhibitors, the beads were allowed to settle to the bottom of the tube at 24° C. for 10 minutes. The polyglutamine-bound beads were aliquoted and diluted with two volumes of 10 μg/ml of Congo red in PBS. The beads were mixed and centrifuged at 15,000 rpm for 2 minutes and the supernatant was removed and diluted 1:100. The percentage absorbance of the compound remaining in the supernatant after absorption with the GST-polyQ beads was then detected. In addition, Congo red- or PBS-only treated polyglutamine polypeptide bead pellets were washed three times with 100 volumes of PBS and then the protein was separated by 12% polyacrylamide gels and immunoblotted as mentioned above. Some blots were used for immunostaining with anti-polyglutamine antibody (EM48). Other blots were left unstained to visualize the red color of Congo red that entered the gel along with the polyglutamine protein.
Binding of the above-identified compounds to amyloid-like Q81 aggregates was also assessed by a chemical absorption assay. The compounds indicated in FIG. 19 (25 μM of each) were pre-absorbed with a Q81 GST recombinant protein and the percentage absorbance of the compound remaining in the supernatant after absorption with GST-Q81 beads was then detected.

[1] = test system: FADDdn, caspase-8dn, and HD exon-1 (Q25)-GFP; assay: Recruitment of polyglutamine interacting proteins; assay type: cell-based; conditions: HeLa co-transfected with Q-79
Excerpt: FIG. 7A is a graph of the effect of Congo red or ZVAD on the recruitment of caspase-8, a death domain, or proteins containing short polyglutamine repeats by expanded polyglutamine oligomerization in cells transfected with a Q79-GFP expression construct and a caspase-8 (GFP-casp 8DN), death domain (GFP-FADD DN), or short polyglutamine (HD-1 (Q25)-GFP) protein recruitment.
We co-transfected HeLa cells with Q-79 and one of the following expression constructs, GFP-FADDdn (GFP fused to the death domain of FADD adapter protein, that generates a dominant negative FADD polypeptide (missing the first 80 amino acids of the full length protein)), GFP-caspase-8dn (GFP-tagged C360S mutant of caspase-8, generating a dominant negative caspase-8 polypeptide; Sanchez et al., supra), or GFP-exon-1 (Q25) (a GFP fusion construct containing the first exon of human huntingtin protein, encoding a 25 polyglutamine stretch; Kazantsev et al., Proc. Natl. Acad. Sci. USA 96:[…], 1999), in the presence of ZVAD or of Congo red (FIGS. 7A and B).

HD transgenic mice (R62) = assay: Fasting glucose levels in blood; assay type: in vivo; conditions: 6 hours of fasting, intraperitoneal delivery
Excerpt: FIG. 10B is a table showing the effect of intraperitoneal delivery of Congo red or PBS (vehicle) on fasting glucose levels in wild-type (WT) or HD transgenic mice.
In addition, the ability of Congo red to inhibit the formation as well as to disrupt preformed polyglutamine oligomers allowed us to examine the role of polyglutamine aggregates in neuronal dysfunction and degeneration characteristic of polyglutamine expansion diseases. In these studies, we used the animal model of Huntington's disease (R62), which expresses the truncated form of huntingtin with 139 CAG repeats Mangiarini et al. (supra). We took advantage of our finding that in addition to inhibiting polyglutamine oligomerization, Congo red also disrupts pre-formed oligomers, thus allowing assessment of the impact of Congo red on disease progression after formation of polyglutamine aggregates and the onset of symptoms. R62 transgenic mice and CBAxC57B1/6 F1 wild type littermates were obtained from Jackson Laboratories (Bar Harbor, Me.) at the age of five weeks. […]
R62 mice also develop severe diabetes due to the presence of polyglutamine aggregates in the pancreas. […] The levels of glucose in the blood after 6 hours of fasting were measured from the serum using the Accu-Check strip kit (Roche, Co.).

HSP40 and HSP70 = assay: Expression of chaperone proteins; assay type: cell-based; conditions: Q79-expressing (HA-Q79) HeLa cells
Excerpt: We examined whether the destabilizing effect of Congo red on polyglutamine oligomers in HeLa cells expressing expanded polyglutamine repeats was caused indirectly through increased expression of endogenous chaperones (FIG. 5E). Lysates from Congo red-treated or control cells expressing expanded polyglutamine repeats (HA-[…]) were separated by SDS-PAGE and probed with anti-HSP70, anti-HSP40, and anti-HA antibodies to detect polyglutamine repeats.

SMILES: Nc1c(/N=N/c2ccc(-c3ccc(/N=N/c4cc(S(=O)(=O)O)c5ccccc5c4N)cc3)cc2)cc(S(=O)(=O)O)c2ccccc12 [Congo red, diphenyldiazo-bis-alpha-napthylaminesulfonate]
- binding to 81-repeat polyglutamine polypeptide (GST-Q81 beads): binds to expanded polyglutamines
- recruitment of FADDdn, caspase-8dn, and HD exon-1 (Q25)-GFP [1]: decreased the concurrent recruitment of FADDdn, caspase-8dn, and HD exon-1 (Q25)-GFP
- fasting glucose levels in blood (HD transgenic mice (R62)): reduced the fasting glucose levels in blood
- expression of HSP40 or HSP70 (HSP40 and HSP70): did not induce the expression of HSP40 or HSP70
